≈ marks a conversion by molar mass, not a printed value. Each block holds one molecule with its values, some of them ahead of it.
Key:
USP30 = USP30 (Homo sapiens (Human), UniProt Q70CQ3); experiment: USP30 biochemical IC50 assay (fluorescence polarisation); settings: biochemical FP assay, 30 min enzyme/compound incubation
Procedure: Compounds of the invention may be tested for USP30 affinity using the in vitro biochemical fluorescence polarization (FP) assay described herein.
Dilution plates were prepared at 21 times the final concentration (2100 µM for a final concentration of 100 µM) in 50% DMSO in a 96-well polypropylene V-bottom plate (Greiner #651201). A typical 8-point dilution series would be 100, 30, 10, 3, 1, 0.3, 0.1, 0.03 µM final. Reactions were performed in duplicate in black 384 well plates (small volume, Greiner 784076) in a final reaction volume of 21 µl. Either 1 µl of 50% DMSO or diluted compound was added to the plate. USP30 (Boston Biochem #E582) was diluted in reaction buffer (40 mM Tris, pH 7.5, 0.005% Tween 20, 0.5 mg/ml BSA, 5 mM beta-mercaptoethanol) to achieve a final assay concentration of 4 nM, and 10 µl of diluted USP30 was added to the compound. Enzyme and compound were incubated for 30 min at room temp. Reactions were initiated by the addition of 50 nM of TAMRA labelled peptide linked to ubiquitin via an iso-peptide bond as fluorescence polarisation substrate. Reactions were read immediately after addition of substrate and following a 2-hour incubation at room temperature. Readings were performed on a Pherastar Plus (BMG Labtech). λ Excitation 540 nm; λ Emission 590 nm.

[1] = system: USP2, USP6, USP10, USP16, USP21, USP25, USP28; experiment: DUB IC50 selectivity panel (seven DUBs); type: biochemical; settings: range over the seven DUBs
Cathepsin B = Cathepsin B (Homo sapiens (Human), UniProt P07858); experiment: Cathepsin B IC50; type: biochemical
Cathepsin L = Cathepsin L (Homo sapiens (Human), UniProt P07711); experiment: Cathepsin L IC50; type: biochemical
Chain of Cathepsin L (P07711 114-333, species assumed): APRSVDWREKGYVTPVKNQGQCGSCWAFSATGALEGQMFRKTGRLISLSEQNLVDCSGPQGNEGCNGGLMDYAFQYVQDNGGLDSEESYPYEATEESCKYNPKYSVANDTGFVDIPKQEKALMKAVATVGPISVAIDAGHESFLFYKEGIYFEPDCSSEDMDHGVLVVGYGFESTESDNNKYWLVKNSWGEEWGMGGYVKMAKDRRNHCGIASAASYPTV

Cathepsin V = Cathepsin V (Homo sapiens (Human), UniProt O60911); experiment: Cathepsin V IC50; type: biochemical
Chain of Cathepsin V (O60911 114-334, species assumed): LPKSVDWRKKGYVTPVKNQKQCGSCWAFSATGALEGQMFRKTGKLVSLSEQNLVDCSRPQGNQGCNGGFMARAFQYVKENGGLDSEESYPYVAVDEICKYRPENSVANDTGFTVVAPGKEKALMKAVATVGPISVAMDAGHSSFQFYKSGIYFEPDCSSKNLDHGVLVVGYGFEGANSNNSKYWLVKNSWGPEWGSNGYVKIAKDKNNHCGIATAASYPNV

Hepatocyte Cl mouse = type: in vitro ADME; settings: mouse hepatocytes
Procedure: Hep Cl mouse: in vitro hepatocyte clearance in mouse cells.
(§1) Clu: in vitro clearance. Clu as defined here is the scaled clearance, in turn calculated from the intrinsic clearance. The intrinsic clearance is the predicted clearance due to hepatic metabolic reactions, determined from incubation of a compound in a hepatocyte preparation.

Mouse plasma stability = type: in vitro ADME; settings: for half-life: read-out: Stability Mouse plasma t½
Source text: Other parameters that may be measured using standard assays that are indicative of a compound’s exposure profile include, for example plasma stability (half-life measurement), blood AUC, Cmax, Cmin and Tmax values.

UCHL1 = UCHL1 (Homo sapiens (Human), UniProt P09936); experiment: UCHL1 DUB IC50; type: biochemical
Chain of UCHL1 (P09936 whole entry, species assumed): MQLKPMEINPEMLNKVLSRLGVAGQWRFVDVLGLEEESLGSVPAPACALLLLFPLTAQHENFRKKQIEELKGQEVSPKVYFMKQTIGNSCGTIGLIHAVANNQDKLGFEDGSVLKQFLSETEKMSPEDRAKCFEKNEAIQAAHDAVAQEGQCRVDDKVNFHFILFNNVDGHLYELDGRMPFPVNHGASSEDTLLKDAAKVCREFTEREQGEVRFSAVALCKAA

[2] = system: cathepsins (B, K, L, S and V); experiment: Cathepsin IC50 panel, summary over B, K, L, S, V; type: biochemical; settings: range over the five cathepsins
[3] = system: Eurofins CEREP SafetyScreen44 panel; experiment: Eurofins CEREP SafetyScreen44 panel profiling; type: binding; settings: single concentration of 10 µM
Source text: Aside from selectivity over other DUB enzymes, it is important for a drug to have low affinity for other targets, and pharmacological profiling may be performed against panels of targets to assess the potential for, and to minimise, potential off-target effects. Examples of targets for which the compounds of the present invention may be screened against are those of the industry standard Eurofins-Cerep SafetyScreen44 panel, which includes 44 targets as a representative selection of GPCR receptors, transporters, ion channels, nuclear receptors, and kinase and non-kinase enzymes. Preferably, compounds of the invention have insignificant affinity against targets of this screening panel. Further examples of targets for which the compounds of the present invention may be screened against are kinases of the Thermo Fisher SelectScreen kinase profiling panel, which includes 39 targets as a representative selection of kinase enzymes. Preferably, compounds of the invention have insignificant affinity against targets of this screening panel. Additionally, examples of a particular enzyme class for which the compounds of the present invention may be screened against are the cathepsins (e.g. cathepsin A, B, C, H, K, L, L2, S, V and Z). Preferably, compounds of the invention have good selectivity for USP30 over one or more of these enzymes.

hERG potassium channel = hERG potassium channel (Homo sapiens (Human), UniProt Q12809); experiment: hERG potassium channel current in stably expressed CHO cells; type: cell-based; settings: at 30 µM, 0.01 to 30 µM tested
Chain of hERG potassium channel (Q12809 whole entry): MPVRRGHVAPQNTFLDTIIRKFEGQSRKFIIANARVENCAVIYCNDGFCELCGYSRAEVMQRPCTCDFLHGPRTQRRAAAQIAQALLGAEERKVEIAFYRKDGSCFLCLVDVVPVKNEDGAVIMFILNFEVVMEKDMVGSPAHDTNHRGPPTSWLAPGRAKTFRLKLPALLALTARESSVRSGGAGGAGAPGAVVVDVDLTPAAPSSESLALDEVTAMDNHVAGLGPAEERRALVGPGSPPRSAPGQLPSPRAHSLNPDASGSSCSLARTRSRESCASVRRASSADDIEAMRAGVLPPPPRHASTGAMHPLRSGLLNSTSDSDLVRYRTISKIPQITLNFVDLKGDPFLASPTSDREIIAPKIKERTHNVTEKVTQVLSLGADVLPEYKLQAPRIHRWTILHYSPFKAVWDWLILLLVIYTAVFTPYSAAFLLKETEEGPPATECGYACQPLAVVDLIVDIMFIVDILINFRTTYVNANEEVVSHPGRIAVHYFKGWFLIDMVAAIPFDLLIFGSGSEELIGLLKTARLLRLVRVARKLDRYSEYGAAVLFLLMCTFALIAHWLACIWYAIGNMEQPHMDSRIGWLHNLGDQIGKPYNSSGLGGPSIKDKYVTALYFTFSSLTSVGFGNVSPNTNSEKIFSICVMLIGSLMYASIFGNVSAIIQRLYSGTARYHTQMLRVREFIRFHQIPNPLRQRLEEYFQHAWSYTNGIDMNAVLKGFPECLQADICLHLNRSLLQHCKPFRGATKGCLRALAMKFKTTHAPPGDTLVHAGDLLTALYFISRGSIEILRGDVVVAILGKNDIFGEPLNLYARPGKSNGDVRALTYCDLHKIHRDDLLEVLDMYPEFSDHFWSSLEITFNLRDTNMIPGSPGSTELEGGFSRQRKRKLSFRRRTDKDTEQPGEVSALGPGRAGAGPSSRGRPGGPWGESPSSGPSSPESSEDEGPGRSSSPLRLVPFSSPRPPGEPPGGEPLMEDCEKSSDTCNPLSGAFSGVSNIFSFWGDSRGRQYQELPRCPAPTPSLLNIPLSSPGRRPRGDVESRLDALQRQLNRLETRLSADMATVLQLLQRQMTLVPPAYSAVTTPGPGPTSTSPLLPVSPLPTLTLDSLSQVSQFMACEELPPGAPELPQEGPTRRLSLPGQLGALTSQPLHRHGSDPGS
Source text: The hERG predictor assay provides valuable information about the possible binding of test compounds to the potassium channel and potential QT prolongation on […]. Inhibition of the hERG current causes QT interval prolongation resulting in potentially fatal ventricular tachyarrhythmia (Torsades de Pointes). Typically, assay data may be generated from an automated patch-clamp assay platform.

TK6 cells = experiment: In vitro micronucleus assay; type: cell-based; settings: 27 hours recovery
Procedure: The micronucleus assay may be used to determine if a compound is genotoxic by evaluating the presence of micronuclei. Micronuclei may contain chromosome fragments produced from DNA breakage (clastogens) or whole chromosomes produced by disruption of the mitotic apparatus (aneugens).
Induction of chromosome damage was assessed using the in vitro micronucleus assay in TK6 cells.

[4] = system: HCT116 human colorectal carcinoma cells; experiment: In vitro cytotoxicity (Cell Tox), alamarBlue; type: cell-based; settings: HCT-116, 96-hour continual compound exposure
Source text: There is also a need for compounds that have a favourable safety profile, which may be measured by a variety of standard in vitro and in vivo methods. A cell toxicity counter-screen may be used to assay the anti-proliferative/cytotoxic effect in a particular cell line (e.g. HCT116) by fluorometric detection of rezasurin (alamarBlue™) to resofurin in response to mitochondrial activity.
In Vitro Cytotoxicity (Cell Tox): Measured in HCT116 human colorectal carcinoma cells using alamarBlue™ as the assay endpoint. Compound cytotoxicity was measured over a period of 96-hour continual compound exposure.

[5] = Log D lipophilicity measurement; type: physicochemical; settings: pH 7.4; read-out: Log D measured at pH 7.4
Source text: log D: distribution co-efficient; lipophilicity measurement.

Turbidimetric solubility = type: physicochemical; settings: aqueous buffer, kinetic from dmso stock
Source text: The solubility of a compound is an important factor in achieving a desired concentration of drug in systemic circulation for the anticipated pharmacological response. Low aqueous solubility is a problem encountered with formulation development of new chemical entities and to be absorbed a drug must be present in the form of solution at the site of absorption. The kinetic solubility of a compound may be measured using a turbidimetric solubility assay, the data from which may also be used in conjunction with Caco-2 permeability data to predict dose dependent human intestinal absorption.
Turbidimetric solubility: Test compound solution prepared in DMSO diluted into aqueous buffer. Turbidimetry is used as the end-point by measuring absorbance at 620 nm.

FaSSIF solubility = type: physicochemical; settings: pH 6.5, fasted state simulated intestinal fluid
Source text: FaSSIF: simulated intestinal fluid in fasted state measured at pH 6.5.

Hepatocyte Cl human = type: in vitro ADME; settings: human hepatocytes
Procedure: Hep Cl human: in vitro hepatocyte clearance in human cells.
as §1

WT-MDCK in vitro flux = type: in vitro ADME; settings: dog
[6] = Plasma binding mouse (equilibrium dialysis); type: in vitro ADME; settings: read-out: Binding Mouse Plasma fu,p
Source text: (§2) Plasma fu,p: The free fraction of a compound in plasma preparation determined by in vitro equilibrium dialysis. It is understood that only unbound (free) compound is capable of engaging with the target. Brain fu,br: The free fraction of a compound in brain homogenate preparation determined by in vitro equilibrium dialysis. It is understood that only unbound (free) compound is capable of engaging with the target.

[7] = Brain homogenate binding mouse (equilibrium dialysis); type: in vitro ADME; settings: read-out: Binding Mouse Brain fu,br
Source text: as §2

PK mouse (IV and oral) = type: in vivo; settings: plasma
Source text: Cl in vivo clearance: Pharmacokinetic measurement of the volume of plasma (or any matrix) from which a substance is completely removed per unit time.

Mouse PK microdialysis = type: in vivo
Source text: (§3) Kpuu is the ratio of unbound drug in brain to unbound drug in plasma and may be indicative of potential for treating peripheral and/or CNS indications.

Rat PK microdialysis = type: in vivo; settings: microdialysis 30 mg/kg po
Source text: as §3

Dog PK (CSF) = type: in vivo
Source text: as §3

UUO injured kidneys = experiment: Unilateral ureteral obstructive kidney disease model (UUO); type: in vivo, C57BL/6 mice; settings: 10 days
Source text: UUO causes renal injury characterised by tubular cell injury, interstitial inflammation and fibrosis. It serves as a model of irreversible post-renal acute kidney injury (AKI). Experimental UUO has illustrated the molecular mechanisms of apoptosis, inflammation and fibrosis, all of which are key processes in renal injury, regardless of the primary insult. Consequently, the UUO model provides investigators information beyond obstruction (Chevalier et al, 2009, Kidney Int 75(11): 1145-1152). Example 1 was assessed in the UUO model to determine the ability of the compound to attenuate progressive tubulointerstitial fibrosis and chronic kidney disease (CKD). […] Two hours post dosing on day 1 study mice underwent surgery to ligate the left ureter at two points. Successful UUO surgery was later confirmed by observation of dilation of renal pelvis due to hydronephrosis. The animals were dosed according to their prescribed regimen for 10 days at which point kidneys were harvested, or histopathology assessment and for protein/RNA assessment. Picrosirius Red staining was performed to assess the extent of collagen deposition and IHC was employed to assess relative α-Smooth Muscle Actin (α-SMA) expression.

[8] = system: Salmonella typhimurium strains TA98, TA100, TA1535 and TA97a and the Escherichia Coli strain WP2 uvrA pKM101; experiment: Bacterial reverse mutation assay (Ames); settings: up to 5000 µg/plate with and without metabolic activation
Procedure: The bacterial reverse mutation assay (Ames Test) may be used to evaluate the mutagenic properties of compounds of the invention, commonly by using the bacterial strain Salmonella typhimurium, which is mutant for the biosynthesis of the amino acid histidine.
All in vitro tests were conducted with and without exogenous metabolic activation using concentrations up to those limited by cytotoxicity or insolubility.

Chain of USP30 (Q70CQ3 57-517): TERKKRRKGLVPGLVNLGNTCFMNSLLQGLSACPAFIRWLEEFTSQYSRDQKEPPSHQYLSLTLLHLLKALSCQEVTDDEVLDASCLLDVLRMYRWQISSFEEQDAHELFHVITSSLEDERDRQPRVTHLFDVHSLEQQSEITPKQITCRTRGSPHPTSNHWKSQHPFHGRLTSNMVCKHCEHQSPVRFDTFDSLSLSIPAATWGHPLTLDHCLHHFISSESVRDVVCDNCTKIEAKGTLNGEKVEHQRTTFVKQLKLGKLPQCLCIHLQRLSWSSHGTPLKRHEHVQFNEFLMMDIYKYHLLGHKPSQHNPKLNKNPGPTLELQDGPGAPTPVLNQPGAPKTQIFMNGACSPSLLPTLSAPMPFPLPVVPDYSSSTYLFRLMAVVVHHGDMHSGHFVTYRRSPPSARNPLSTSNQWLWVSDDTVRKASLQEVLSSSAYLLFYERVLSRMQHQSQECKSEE

fold more potent against USP30 than UCHL1 (UCHL1): 0.8 fold
SMILES: N#CN1CC[C@H](C(=O)Nc2ncc(-c3ccccc3)s2)C1 [D]

fold more potent against USP30 than UCHL1 (UCHL1): 1.5 fold
SMILES: CC1CC(C(=O)Nc2ncc(-c3ccccc3)s2)CN1C#N (stereo not shown) [Reference Example E]

Continued, molecule first:

SMILES: Cc1cc(-c2cccc(C(=O)N3CC[C@@H]4CN(C#N)C[C@@H]43)c2)ccn1 [Reference Example C]
IC50 (USP30): 0.072 µM
IC50 [1]: 4 to 92.4 µM
IC50 (Cathepsin B): 1.2 µM
IC50 (Cathepsin L): 1.3 µM
IC50 (Cathepsin V): 18.5 µM
Hepatocyte Cl mouse scaled Clu (Hepatocyte Cl mouse): 108 mL/min/kg
half-life (Mouse plasma stability): 16 min

SMILES: C[C@@H]1[C@H]2CCN(C(=O)c3ncc(-c4ccnc(C#N)c4)o3)[C@H]2CN1C#N (single isomer, unassigned) [Example 1]
IC50 [1]: 24.9 to 107 µM
IC50 (UCHL1): > 300 µM
IC50 (Cathepsin B): 205 µM
IC50 (Cathepsin L): 42.1 µM
IC50 (Cathepsin V): 247 µM
IC50 [2]: ≥ 42.1 µM
inhibition of binding or enzyme activity against all targets in the panel [3]: less than 50%
maximum inhibition of the hERG current amplitude (hERG potassium channel): 27%
induction of micronuclei (TK6 cells; 3 hours in the presence of exogenous metabolic activation): negative
induction of micronuclei (TK6 cells; 27 hours in the absence of exogenous metabolic activation): negative
EC50 [4]: > 30 µM
logD [5]: 1.4
solubility (Turbidimetric solubility): 65 µM (≈ 22.6 µg/mL)
FaSSIF (µM) measured at pH 6.5 (FaSSIF solubility): 488 µM
Hepatocyte Cl mouse scaled Clu (Hepatocyte Cl mouse): 40 mL/min/kg
Hepatocyte Cl human scaled Clu (Hepatocyte Cl human): 18 mL/min/kg
improved plasma stability compared to Reference Examples A, B and C (Mouse plasma stability): 2 to 8 fold
half-life (Mouse plasma stability): > 120 min
Papp A→B (WT-MDCK in vitro flux): 16 ×10⁻⁶ cm/s
fraction unbound [6]: 0.14
fraction unbound [7]: 0.3
bioavailability (PK mouse (IV and oral); po, mouse 10 mg/kg, read-out: Oral F (%)): 87%
clearance (PK mouse (IV and oral); mouse 2 mg/kg IV, read-out: Cl plasma): 19 mL/min/kg
CNS distribution in vivo by microdialysis sampling of brain regions (Mouse PK microdialysis; 30 mg/kg oral dose in mice and rats): high CNS distribution
Mouse Kpuu (PFCu/plasmau) (Mouse PK microdialysis; microdialysis 30 mg/kg po): 0.90
Mouse PFCu/cell TOM20-Ub (Mouse PK microdialysis; microdialysis 30 mg/kg po): 125-fold
Rat Kpuu (PFCu/plasmau) (Rat PK microdialysis): 0.43
Dog Kpuu (CSF/plasmau) (Dog PK (CSF); 30 mg/kg po): 0.41
partition to the cerebro-spinal fluid (CSF) (Dog PK (CSF); dogs, 30 mg/kg orally): high partition
α-SMA levels in UUO injured kidneys vs vehicle (UUO injured kidneys; 1.5 mg/kg oral BID): statistical reduction in α-SMA levels
collagen deposition (picrosirius red staining) in ligated kidneys (UUO injured kidneys; 1.5 mg/kg p.o. BID): statistically reduced collagen deposition
collagen deposition (picrosirius red staining) in ligated kidneys (UUO injured kidneys; 5 mg/kg p.o. BID): statistically reduced collagen deposition
induction of mutations in reverse mutation assay [8]: did not induce mutations

SMILES: COc1ccc(-c2cc(C(=O)N3CC[C@@H]4CN(C#N)C[C@@H]43)on2)cc1 [B]
IC50 (USP30): 0.07 µM
IC50 [1]: 0.54 to 38.8 µM
IC50 (Cathepsin B): 1.4 µM
IC50 (Cathepsin L): 1.8 µM
IC50 (Cathepsin V): 2.3 µM
Hepatocyte Cl mouse scaled Clu (Hepatocyte Cl mouse): > 121 mL/min/kg
half-life (Mouse plasma stability): 21 min
